Measurements: patent US20190099383A1, “Transdermal Delivery of Selexipag Metabolite” (Samos Pharmaceuticals, Inc., priority 2017, published 2019)
Like-named read-outs stand apart in the source and are kept apart here.

How the values were obtained:
[1] = Saturation concentration of the drug in the receptor medium; type: physicochemical; conditions: pH 7.4 water with 0.44 mg/ml OLETH 20
[2] = rat; cited from earlier work
[3] = cited from earlier work
[4] = In vitro unenhanced skin flux, Franz diffusion cells; type: in vitro ADME, human; conditions: 168 hour period, saturated solution in 80/20% ethanol/water, no enhancers
Procedure: All in vitro skin permeation studies are conducted using the PermeGear Membrane Transport System. […] Skin flux studies are run for a period of 168 hours. […] The receiver compartment is refilled with fresh receiver medium.

[5] = biological target: prostacyclin IP receptor (Homo sapiens, UniProt P43119); conditions: ACT 333679 versus selexipag; cited from earlier work
[6] = Formulation B enhancer system, 2, 4, 8, 12 and 24 hour time points (FIG. 1)
Procedure: One skin donor and three diffusion cells per formulation were used in these in vitro skin permeation experiments. Split thickness dermatomed (approximately at 375 μm) human cadaver skin was used to determine the permeation rate of the selexipag metabolite ACT 333679 in vitro. All in vitro skin permeation studies were conducted using the PermeGear Membrane Transport System (PermeGear, Inc., Hellertown, Pa.). Each Membrane Transport System consists of vertical, jacketed (37° C.±0.5° C.) Franz diffusion cells with magnetic stirrer and 1.7 cm^2 diffusion area.
Skin flux studies were run for a period of 48 hours. At predetermined intervals (3, 24 and 48 hours) after starting the experiment, the entire contents of the receiver compartment were collected for determination of the ACT 333679 concentration by HPLC. The receiver compartment was refilled with fresh receiver medium. The receiver medium was pH 7.4 water with 0.44 mg/ml of OLETH 20 (polyethylene glycol ether of oleyl alcohol) with the saturation concentration of the drug in the receptor medium being 0.23 mg/ml or 2 mg total in the receptor phase. […]
One skin donor and three diffusion cells per formulation were used in these in vitro skin permeation experiments. […] Samples in the receptor phase were obtained at the 2, 4, 8, 12 and 24 hour intervals and the amount of selexipag or ACT333679 was determined by HPLC.

[7] = headache, diarrhea, pain in the jaw, nausea and myalgia; cited from earlier work
[8] = test system: carboxylesterases; conditions: cited from earlier work

Sequence of prostacyclin IP receptor (P43119 whole entry): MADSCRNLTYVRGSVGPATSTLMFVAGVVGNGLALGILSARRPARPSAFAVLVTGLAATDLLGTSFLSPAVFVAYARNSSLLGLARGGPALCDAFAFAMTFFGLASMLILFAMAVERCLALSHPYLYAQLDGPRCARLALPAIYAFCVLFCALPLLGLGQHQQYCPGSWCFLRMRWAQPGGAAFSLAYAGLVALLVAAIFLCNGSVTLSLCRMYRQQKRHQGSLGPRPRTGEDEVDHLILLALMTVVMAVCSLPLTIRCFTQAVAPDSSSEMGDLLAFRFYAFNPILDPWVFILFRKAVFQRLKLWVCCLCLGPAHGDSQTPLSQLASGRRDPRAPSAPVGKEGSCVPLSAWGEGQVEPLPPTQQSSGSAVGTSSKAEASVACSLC

Structure (SMILES)	saturation amount, total in the receptor phase [1] [mg]	saturation concentration of the drug in the receptor medium [1] [mg/mL]	oral bioavailability [2] [%]	effect of presence of food on AUC ([3]; presence of food) [%]	average flux [4]	potency relative to selexipag [5]	permeation through skin compared with selexipag [6]	difference in incidence of side effects between selexipag and placebo [7]	absorption ([3]; oral) [%]	metabolism of selexipag to ACT 333679 ([8]; carboxylases present in human plasma)	metabolism of selexipag to ACT 333679 ([8]; human hepatic microsomes)
CC(C)N(CCCCOCC(=O)O)c1cnc(-c2ccccc2)c(-c2ccccc2)n1 [ACT 333679]	2	0.23	57	27	2.9 micrograms per square centimeter per hour	at least 16 times	higher than that of selexipag				
CC(C)N(CCCCOCC(=O)NS(C)(=O)=O)c1cnc(-c2ccccc2)c(-c2ccccc2)n1 [selexipag]					1.2 micrograms per square centimeter per hour			higher than 10%	~60	do not metabolize selexipag to ACT 333679	metabolized to ACT 333679 from hepatic microsomes
